Results: patent US4450269A, “Mono-5-substituted-3-chloro-4H-1,2,6-thiadiazin-4-one antifungal agents” (FMC Corporation, priority 1980, dated 1984)
Like-named read-outs stand apart in the source and are kept apart here.

Columns and labels:
[1] = test system: Pyricularia oryzae; test: whole plant or invertebrate; format: in vivo; details: Pyricularia oryzae, foliar, 24 h, read-out: Percent Disease Control, curative, rice blast, 150 ppm, 24 hours after inoculation
[2] = test system: Pyricularia oryzae; test: microbe, parasite or virus in culture; format: cell-based; details: Pyricularia oryzae, 72 h; for inhibition at 5 ppm: read-out: Percent Fungus Growth Inhibition, PO, 5 ppm, 72 hours; for inhibition at 10 ppm: read-out: Percent Fungus Growth Inhibition, PO, 10 ppm, 72 hours; for inhibition at 20 ppm: read-out: Percent Fungus Growth Inhibition, PO, 20 ppm, 72 hours; for inhibition at 40 ppm: read-out: Percent Fungus Growth Inhibition, PO, 40 ppm, 72 hours
[3] = test system: Rhizoctonia solani; test: Mycelial growth test; format: cell-based; details: Rhizoctonia solani, 72 h, RS, read-out: Percent Fungus Growth Inhibition
Text: | RS = Rhizoctonia solani

[4] = test system: Uromyces phaseoli; test: whole plant or invertebrate; details: foliar, read-out: Percent Disease Control, foliar, bean rust
[5] = test system: Alternaria solani; test: Mycelial growth test; format: cell-based; details: Alternaria solani, 72 h, AS, read-out: Percent Fungus Growth Inhibition
[6] = test system: Erysiphe polygoni; test: whole plant or invertebrate; details: foliar, 24 h, read-out: Percent Disease Control, curative, bean powdery mildew
[7] = test system: Phytophthora infestans; format: cell-based; details: PI, 48 hours
[8] = test system: Pythium ultimum; test: Mycelial growth test; format: cell-based; details: Globisporangium ultimum, 72 h, PU, read-out: Percent Fungus Growth Inhibition
[9] = test system: Fusarium solani; test: Mycelial growth test; format: cell-based; details: Fusarium solani, 72 h; for inhibition at 5 ppm / inhibition at 10 ppm / inhibition at 20 ppm: PS, 72 hours, read-out: Percent Fungus Growth Inhibition; for inhibition at 40 ppm: read-out: Percent Fungus Growth Inhibition, PS, 40 ppm, 72 hours
[10] = test system: Uromyces phaseoli; test: whole plant or invertebrate; details: foliar, 24 h, read-out: Percent Disease Control, curative, bean rust
[11] = test system: Cladosporium cucumerinum; test: Spore germination test; format: cell-based; details: CC, 48 hours
Method: CC = Cladosporium cucumerinum
(§1) The test chemical was dissolved or suspended in acetone in an amount such that 0.8 ml of the resulting suspension or solution, mixed with 40 ml water agar produced a water agar solution containing 40, 10, 2.5 and 1 ppm of test chemical. The resulting agar solution, at 50° C., was then divided equally between two sterile petri dishes, each having four separated quadrants, and allowed to solidify. […] quadrants of each dish were flooded with 0.1 ml of a spore suspension in sterile water. Spores of two pathogens, Erysiphe polygoni and Uromyes phaseoli, from infected plant leaves, were brushed on the remaining two quadrants. The tests were then incubated 48 hours, at 24° C.
(§2) Readings were then taken and the percentage of germinated spores calculated. From this percentage, a spore germination rating was assigned as follows: […]

[12] = test system: Pyricularia oryzae; format: cell-based; details: PO, 48 hours
[13] = test system: Botrytis cinerea; test: Spore germination test; format: cell-based; details: BC, 48 hours
Method: as §1, §2

[14] = test system: Uromyces phaseoli; test: Spore germination test; format: cell-based; details: UP, 48 hours
Method: as §1, §2

[15] = test system: Alternaria solani; test: Spore germination test; format: cell-based; details: AS, 48 hours
Method: as §1, §2

[16] = test system: Erysiphe polygoni; test: Spore germination test; format: cell-based; details: EP, 48 hours
Method: as §1, §2

[17] = test system: Sclerotinia fructicola; test: Mycelial growth test; format: cell-based; details: Sclerotinia, 72 h, SF, read-out: Percent Fungus Growth Inhibition
Text: | SF = Sclerotinia fructicola

[18] = test system: Helminthosporium oryzae; test: Mycelial growth test; details: Bipolaris oryzae, 72 h; for inhibition at 5 ppm: read-out: Percent Fungus Growth Inhibition, HO, 5 ppm, 72 hours; for inhibition at 10 ppm: read-out: Percent Fungus Growth Inhibition, HO, 10 ppm, 72 hours; for inhibition at 20 ppm: read-out: Percent Fungus Growth Inhibition, HO, 20 ppm, 72 hours; for inhibition at 40 ppm: read-out: Percent Fungus Growth Inhibition, HO, 40 ppm, 72 hours
[19] = test system: Phytophthora infestans; test: whole plant or invertebrate; format: in vivo; details: Phytophthora infestans, in Solanum lycopersicum, foliar, read-out: Percent Disease Control, foliar, tomato late blight, 150 ppm, protective
[20] = test system: Cladosporium cucumerinum; test: Mycelial growth test; format: cell-based; details: Cladosporium cucumerinum, CC, read-out: Percent Fungus Growth Inhibition; for inhibition at 5 ppm / inhibition at 10 ppm / inhibition at 40 ppm: 72 h; for inhibition at 20 ppm: CC20, 72 h
Text: |CC = Cladosporium cucumerinum

O=c1c(Cl)nsnc1Oc1ccc(O)cc1 [Compound 35, 3-chloro-5-(4-hydroxyphenoxy)-4H-1,2,6-thiadiazin-4-one]
pest or weed control at 150 ppm [1]: 0% | inhibition at 5 ppm [2]: 23% | inhibition at 10 ppm [2]: 38% | inhibition at 20 ppm [2]: 100% | inhibition at 40 ppm [2]: 100% | inhibition at 5 ppm [3]: 0% | inhibition at 10 ppm [3]: 7% | inhibition at 20 ppm [3]: 44% | inhibition at 40 ppm [3]: 76% | pest or weed control at 150 ppm [4]: 100% | inhibition at 5 ppm [5]: 90% | inhibition at 10 ppm [5]: 100% | inhibition at 20 ppm [5]: 100% | inhibition at 40 ppm [5]: 100% | pest or weed control at 150 ppm [6]: 0% | Spore Germination Rating ([7]; 1.0 ppm): 4 (80-100) | Spore Germination Rating ([7]; 2.5 ppm): 0 (0-10) | Spore Germination Rating ([7]; 10 ppm): 0 (0-10) | Spore Germination Rating ([7]; 40 ppm): 0 (0-10) | inhibition at 5 ppm [8]: 0% | inhibition at 10 ppm [8]: 11% | inhibition at 20 ppm [8]: 100% | inhibition at 40 ppm [8]: 100% | inhibition at 5 ppm [9]: 30% | inhibition at 10 ppm [9]: 35% | inhibition at 20 ppm [9]: 60% | inhibition at 40 ppm [9]: 80% | pest or weed control at 150 ppm [10]: 0% | Spore Germination Rating ([11]; 1.0 ppm): 4 (80-100) | Spore Germination Rating ([11]; 2.5 ppm): 0 (0-10) | Spore Germination Rating ([11]; 10 ppm): 3 (60-80) | Spore Germination Rating ([11]; 40 ppm): 0 (0-10) | Spore Germination Rating ([12]; 1.0 ppm): 2 (40-60) | Spore Germination Rating ([12]; 2.5 ppm): 0 (0-10) | Spore Germination Rating ([12]; 10 ppm): 0 (0-10) | Spore Germination Rating ([12]; 40 ppm): 0 (0-10) | Spore Germination Rating ([13]; 1.0 ppm): 4 (80-100) | Spore Germination Rating ([13]; 2.5 ppm): 4 (80-100) | Spore Germination Rating ([13]; 10 ppm): 4 (80-100) | Spore Germination Rating ([13]; 40 ppm): 3 (60-80) | Spore Germination Rating ([14]; 1.0 ppm): 0 (0-10) | Spore Germination Rating ([14]; 2.5 ppm): 0 (0-10) | Spore Germination Rating ([14]; 10 ppm): 0 (0-10) | Spore Germination Rating ([14]; 40 ppm): 0 (0-10) | Spore Germination Rating ([15]; 1.0 ppm): 4 (80-100) | Spore Germination Rating ([15]; 2.5 ppm): 4 (80-100) | Spore Germination Rating ([15]; 10 ppm): 3 (60-80) | Spore Germination Rating ([15]; 40 ppm): 0 (0-10) | Spore Germination Rating ([16]; 1.0 ppm): 4 (80-100) | Spore Germination Rating ([16]; 2.5 ppm): 4 (80-100) | Spore Germination Rating ([16]; 10 ppm): 2 (40-60) | Spore Germination Rating ([16]; 40 ppm): 1 (10-40) | inhibition at 5 ppm [17]: 8% | inhibition at 10 ppm [17]: 27% | inhibition at 20 ppm [17]: 69% | inhibition at 40 ppm [17]: 100% | inhibition at 5 ppm [18]: 83% | inhibition at 10 ppm [18]: 100% | inhibition at 20 ppm [18]: 89% | inhibition at 40 ppm [18]: 100% | pest or weed control at 150 ppm [19]: 100% | inhibition at 5 ppm [20]: 0% | inhibition at 10 ppm [20]: 0% | inhibition at 40 ppm [20]: 92% | inhibition at 20 ppm [20]: 23%

CS(=O)(=O)c1ccc(Oc2nsnc(Cl)c2=O)cc1 [Compound 41, 3-chloro-5-[(4-methylsulfonyl)phenoxy]-4H--1,2,6-thiadiazin-4-one]
pest or weed control at 150 ppm [1]: 0% | inhibition at 5 ppm [2]: 22% | inhibition at 10 ppm [2]: 56% | inhibition at 20 ppm [2]: 59% | inhibition at 40 ppm [2]: 93% | inhibition at 5 ppm [3]: 0% | inhibition at 10 ppm [3]: 0% | inhibition at 20 ppm [3]: 51% | inhibition at 40 ppm [3]: 64% | pest or weed control at 150 ppm [4]: 0% | inhibition at 5 ppm [5]: 54% | inhibition at 10 ppm [5]: 58% | inhibition at 20 ppm [5]: 58% | inhibition at 40 ppm [5]: 100% | pest or weed control at 150 ppm [6]: 0% | Spore Germination Rating ([7]; 1.0 ppm): 4 (80-100) | Spore Germination Rating ([7]; 2.5 ppm): 2 (40-60) | Spore Germination Rating ([7]; 10 ppm): 0 (0-10) | Spore Germination Rating ([7]; 40 ppm): 0 (0-10) | inhibition at 5 ppm [8]: 0% | inhibition at 10 ppm [8]: 100% | inhibition at 20 ppm [8]: 100% | inhibition at 40 ppm [8]: 100% | inhibition at 5 ppm [9]: 16% | inhibition at 10 ppm [9]: 16% | inhibition at 20 ppm [9]: 42% | inhibition at 40 ppm [9]: 68% | pest or weed control at 150 ppm [10]: 0% | Spore Germination Rating ([11]; 1.0 ppm): 0 (0-10) | Spore Germination Rating ([11]; 2.5 ppm): 0 (0-10) | Spore Germination Rating ([11]; 10 ppm): 0 (0-10) | Spore Germination Rating ([11]; 40 ppm): 0 (0-10) | Spore Germination Rating ([12]; 1.0 ppm): 4 (80-100) | Spore Germination Rating ([12]; 2.5 ppm): 3 (60-80) | Spore Germination Rating ([12]; 10 ppm): 0 (0-10) | Spore Germination Rating ([12]; 40 ppm): 0 (0-10) | Spore Germination Rating ([13]; 1.0 ppm): 0 (0-10) | Spore Germination Rating ([13]; 2.5 ppm): 0 (0-10) | Spore Germination Rating ([13]; 10 ppm): 4 (80-100) | Spore Germination Rating ([13]; 40 ppm): 3 (60-80) | Spore Germination Rating ([14]; 1.0 ppm): 4 (80-100) | Spore Germination Rating ([14]; 2.5 ppm): 1 (10-40) | Spore Germination Rating ([14]; 10 ppm): 0 (0-10) | Spore Germination Rating ([14]; 40 ppm): 0 (0-10) | Spore Germination Rating ([15]; 1.0 ppm): 4 (80-100) | Spore Germination Rating ([15]; 2.5 ppm): 2 (40-60) | Spore Germination Rating ([15]; 10 ppm): 0 (0-10) | Spore Germination Rating ([15]; 40 ppm): 0 (0-10) | Spore Germination Rating ([16]; 1.0 ppm): 2 (40-60) | Spore Germination Rating ([16]; 2.5 ppm): 2 (40-60) | Spore Germination Rating ([16]; 10 ppm): 1 (10-40) | Spore Germination Rating ([16]; 40 ppm): 0 (0-10) | inhibition at 5 ppm [17]: 56% | inhibition at 10 ppm [17]: 78% | inhibition at 20 ppm [17]: 100% | inhibition at 40 ppm [17]: 100% | inhibition at 5 ppm [18]: 40% | inhibition at 10 ppm [18]: 60% | inhibition at 20 ppm [18]: 33% | inhibition at 40 ppm [18]: 60% | pest or weed control at 150 ppm [19]: 90% | inhibition at 5 ppm [20]: 10% | inhibition at 10 ppm [20]: 32% | inhibition at 40 ppm [20]: 65% | inhibition at 20 ppm [20]: 48%
